Assay [1] relates to plasma concentrations of MDA. Kind of assay: Plasma lipid peroxidation (SRATB, MDA) after cerebral ischemia/reperfusion. Type of assay: in vivo, Mongolian gerbils. The note with it: gerbils, plasma after I/R; oral HMWS 200, AcGS 132, AlcG 40, AldG 28, AcGL 200, ASA 60 mg/kg. The text has this: (§1) For the evaluation of the neuroprotective effect of the mixture of high molecular weight substances, the object of the present invention, an experimental model of global cerebral ischemia by occlusion and reperfusion of the carotid arteries was used. The composition of High Molecular Weight Substances (HMWS) obtained in example 1 was subjected to a preclinical test with animals, in which its pharmacological effect was compared with the effects of pure extracts of Fatty Acids in the form of Salts (AcGS), fatty alcohols (AlcG) and high molecular weight aldehydes (AldG), which were administered in the dose equivalent to the proportion in which each one is present in 200 mg/kg of the HMWS Active Ingredient. Furthermore, the effect of HMWS was compared with the effect of pure free fatty acid (AcGL) extract administered at equal doses. Once the quarantine was over, the gerbils were distributed into 8 groups: a negative control that only received vehicle and cerebral ischemia (CI) was not induced and 7 groups with induced CI. […] All treatments were administered orally through intragastric intubation (0.5 mL/70 g body weight) 1 hour prior to induction of ischemia. […] To determine lipid peroxidation, the formation of substances reactive to thiobarbituric acid (SRATB) was quantified (according to Ohkawa et al., 1979) in plasma, and was expressed as nmol malondialdehyde (MDA)/mg of protein.

For assay [2], the system named is Mongolian gerbils with global brain Ischemia/Reperfusion (I/R). The experiment in a line: Locomotor activity (open field) after global cerebral ischemia/reperfusion. The note with it: 24 hours post-ischemia, oral HMWS 200, AcGS 132, AlcG 40, AldG 28, AcGL 200, ASA 60 mg/kg. It is filed as in vivo.
Excerpt: as §1, with “doses. […]” for “doses.”, “For 6 minutes,” for “To determine lipid peroxidation,”, “number” for “formation”, “times the gerbils crossed the different quadrants with their front legs and the number of times they stopped or leaned” for “substances reactive to thiobarbituric acid (SRATB)”, “quantified.” for “quantified (according to Ohkawa et al., 1979) in plasma, and was expressed as nmol malondialdehyde (MDA)/mg of protein.”

Assay [3] has the same test system. Kind of assay: Clinical symptom (neurological function) score after global cerebral ischemia by bilateral carotid occlusion/reperfusion. It is filed as in vivo. The note with it: 4 hours after I/R.
Excerpt: as §1, with “doses. […]” for “doses.”, “For 6 minutes,” for “To determine lipid peroxidation,”, “number” for “formation”, “times the gerbils crossed the different quadrants with their front legs and the number of times they stopped or leaned” for “substances reactive to thiobarbituric acid (SRATB)”, “quantified.” for “quantified (according to Ohkawa et al., 1979) in plasma, and was expressed as nmol malondialdehyde (MDA)/mg of protein.”

The values below come from patent publication US12703836B2, “Mixture of compounds with high molecular weights, obtained from sugar cane wax (Saccharum officinarum L.)” (CENTRO NACIONAL DE INVESTIGACIONES CIENTÍFICAS, priority 2021, dated 2026).

As for `CC(=O)Oc1ccccc1C(=O)O` [ASA, aspirin], the “Inhibition (%) of MDA increase” value in assay [1] worked out at 0.0%. The “Crosses (#), open field locomotor activity” value in assay [2] (6 minutes, mean ± SEM, positive control 355.5 ± 12.4, negative 250.8 ± 14.8) is 286.2 ± 15.2 #. Further, the “Inhibition (%) of hyperlocomotion (crosses)” value in assay [2] is 66.2%. Also, the “Inhibition (%) of clinical symptom score” value in assay [3] (oral HMWS 200, AcGS 132, AlcG 40, AldG 28, AcGL 200, ASA 60 mg/kg, vs positive control) stood at 86.6%. Further, the “SC score (clinical symptoms, McGraw scale 0-5)” value in assay [3] (single oral dose 1 hour before ischemia: HMWS (example 1) 200, AcGS 132, AlcG 40, AldG 28, AcGL 200, ASA 60 mg/kg, mean ± SEM, positive control 3.00 ± 0.52) stood at 0.40 ± 0.35.
